Laboratory results from patent US20190090476A1, “MICROEMULSIONS FOR AGRICULTURAL USE” (Florida Chemical Company, Inc., priority 2017, published 2019).
Like-named read-outs stand apart in the source and are kept apart here.

Tests used:
[1] = HSP distance Ra and relative energy difference RED of solvents versus plant wax HSP values; conditions: for RED 1: RED=Ra 1/Ro; for RED 1 / RED 2: Ro=7.1; for RED 2: RED=Ra 2/Ro
Source text: The HSP distance between two molecules, conventionally called Ra, is the measure of how alike they are. The smaller the Ra, the more likely they are to be compatible. A quantity called the relative energy difference (RED) may be used to measure relative distance:
where Ro is the radius of the sphere that contains all good solvents. […] Generally, a value of Ro=7.1 is typical. For RED<1, the molecules are alike and will dissolve. For RED=1, the system will partially dissolve. For RED>1, the system will not dissolve.
A solvent with similar HSP values to these, or a solvent for which Ra (calculated as shown above) is small, or for which RED is less than or equal to 1, would be expected to partially solvate and soften plant leaf cuticle waxes.

[2] = cited from earlier work; for δD: energy from dispersion forces; for δH: energy from hydrogen bonds; for δP: energy from polar intermolecular force
[3] = HSP distance to lower plant wax HSP values (δD=16.0-16.3, δP 0-2.5, δH=0-3.1)
[4] = HSP distance to upper plant wax HSP values (δD=16.0-16.3, δP 0-2.5, δH=0-3.1)

Compound	Ra 2 [1, 3]	Ra 1 [1, 4]	RED 1 [1]	RED 2 [1]	δD [2] [MPa^1/2]	δH [2] [MPa^1/2]	δP [2] [MPa^1/2]	Ra 1 [1]	Ra 2 [1]
Dimethyl Cyclohexane	3.2	1.1	0.16	0.45	16.1	1.1	0		
CCCCOCCO [Ethylene Glycol Monobutyl Ether]	9.6	13.3	1.88	1.35	16	12.3	5.1		
CCCCOC(C)=O [n-Butyl Acetate]	3.6	7.3	1.03	0.50	15.8	6.3	3.7		
Cc1cccc(O)c1 [m-Cresol]	12.2	16.0	2.25	1.71	18.5	13.7	6.5		
C=C(C)[C@H]1CC=C(C)CC1 [d-limonene]	2.3	5.2	0.74	0.32	17.2	4.3	1.8		
CCCCCCC [heptane]	4.4	1.3	0.19	0.62	15.34	0	0		
CCCCCCOC(C)=O [hexyl acetate]	3.0	6.7	0.94	0.42	15.95	5.93	3.07		
CC1=CC=C(C(C)C)CC1 [alpha terpinene]	2.1	4.7	0.67	0.30	16.2	4.6	1		
CC1=CC[C@@H](C(C)(C)O)CC1 [alpha terpineol]	8.4	12.1	1.71	1.18	16.1	11.2	4.6		
CCCCCCCC/C=C\CCCCCCCC(=O)OC [Methyl Oleate]	1.9	5.9	0.83	0.27	16.2	4.5	3.8		
CC1CCCCC1 [Methyl Cyclohexane]			0.14	0.47	16	1	0	1.0	3.3
CC(=O)OCCC(C)C [Iso-Pentyl Acetate]	4.4	7.8	1.10	0.62	15.3	7	3.1		
CCCCOC(=O)CC(C)O (stereo not drawn) [butyl-3-hydroxybutyrate]	9.3	13.2	1.85	1.31	16.10	11.50	6.40		
CC(=O)OC(C)(C)C [t-Butyl Acetate]	4.1	7.3	1.03	0.57	15	6	3.7		
CC12CCC(CC1)C(C)(C)O2 [eucalyptol]	2.1	5.6	0.78	0.29	17	3.3	4		
CC1COC(=O)O1 (stereo not drawn) [Propylene Carbonate]	17.2	20.1	2.83	2.42	20	4.1	18		
CC(C)(C)O [t-Butyl Alcohol]	12.1	15.6	2.20	1.70	15.2	14.7	5.1		
CC1=CC(=O)CC(C)(C)C1 [isophorone]	7.2	11.1	1.56	1.01	16.6	7.4	8.2		
C1CCCCC1 [cyclohexane]	4.0	1.6	0.23	0.56	16.8	0.2	0		
OC1CCCCC1 [cyclohexanol]	10.7	14.4	2.03	1.51	17.4	13.5	4.1		
CCCCCCCC(=O)OC [methyl octanoate]	2.8	6.4	0.91	0.40	16.58	5.85	2.4		
CCCCOC(=O)c1ccccc1 [butyl benzoate]	5.6	9.1	1.28	0.79	18.3	5.5	5.6		
O=C1OCCO1 [Ethylene Carbonate]	19.6	22.6	3.19	2.76					
CCCCCCCCCCCC(=O)OC [methyl dodecanoate]	2.4	5.9	0.83	0.34	16.54	5.43	2.06		
C=CC(C)(O)CCC=C(C)C (stereo not drawn) [linalool]	3.8	7.5	1.06	0.54	16.5	6.9	2.8		
O=C(OCc1ccccc1)c1ccccc1 [Benzyl Benzoate]	8.1	10.8	1.52	1.14	20	5.2	5.1		
CCCCOC(=O)CC [n-Butyl Propionate]			1.14	0.60	15.7	5.9	5.5	8.1	4.3
